Where a name gives a salt, the structure may show the parent alone.

For orientation: IC50 means the concentration that gives 50% inhibition.

One data set concerns the target T1, Notum (core, 81–451C330S) (Homo sapiens, UniProt Q6P988, C330S).
T1 construct: high-throughput biochemical assay with Notum (81–451C330S) and OPTS as a synthetic fluorescent substrate; made in house
T1 sequence (Q6P988 81-451 C330S): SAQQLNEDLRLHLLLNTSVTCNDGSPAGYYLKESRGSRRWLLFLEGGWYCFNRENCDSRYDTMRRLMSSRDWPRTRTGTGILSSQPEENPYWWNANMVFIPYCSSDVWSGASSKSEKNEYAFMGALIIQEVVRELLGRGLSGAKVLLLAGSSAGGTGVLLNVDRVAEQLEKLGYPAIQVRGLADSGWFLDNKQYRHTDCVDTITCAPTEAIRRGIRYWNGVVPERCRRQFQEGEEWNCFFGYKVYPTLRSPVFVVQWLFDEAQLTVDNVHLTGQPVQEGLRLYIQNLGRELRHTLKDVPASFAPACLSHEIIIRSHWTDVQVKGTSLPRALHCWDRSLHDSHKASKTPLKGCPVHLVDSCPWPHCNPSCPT
The experiment in a line: Notum-OPTS biochemical assay, Notum (81–451C330S). The following applies: Table 1; mean ± s.d. of n = 2–6; inactive = <20% inhibition @ 10 μM; >10 = 20–50% inhibition @ 10 μM; 2a covalent, IC50 time-dependant. As to the method: Notum inhibitors 3–5 (Table 1, Table 2, Table 3, Table 4) were either purchased or prepared using established synthetic methods from readily available starting materials (Scheme 1). Where necessary, the synthesis of many of these amines (e.g. 6) have been reported previously and full details of their preparation have been included in the Experimental Section. Notum inhibition activity was determined using the standard Notum-OPTS biochemical assay using IC50 values. These values were used to compare relative activities with covalent inhibitors under carefully regulated assay conditions. […] Selected inhibitors were screened for inhibition of Notum activity in a TCF/LEF Reporter (Luciferase) cell line with exogenous WNT3a and Notum, and soaked into Notum crystals to determine their binding modes and evidence of MoA.
Methods have been described in detail.
Consider `CC(=O)N1CCC(c2ccccc2)C1` (centres unmarked) [Compound 3f, 1-(3-Phenylpyrrolidin-1-yl)ethan-1-one], for which the “Notum IC50” value is “inactive ^c”.
Same read-out and setting: under `CC(=O)n1cnc2ccccc21` [Compound 3l, 1-(1H-Benzo[d]imidazole-1-yl)ethan-1-one] stands “inactive ^c”.

Still in this data set, the particulars now being: Table 1; mean ± s.d. of n = 2–6; inactive = <20% inhibition @ 10 μM; >10 = 20–50% inhibition @ 10 μM; 2a covalent, IC50 time-dependant; read-out: Notum IC50.
As for `CC(=O)N1Cc2ccccc2C1` [Compound 3d, 1-(Isoindolin-2-yl)ethan-1-one], the IC50 stood at 2200 ± 400 nM.
On to `CC(=O)N1CCS(=O)(=O)c2ccccc21` [Compound 3o, 1-(1,1-Dioxido-2,3-dihydro-4H-benzo[b][1,4]thiazin-4-yl)ethan-1-one], for which the IC50 is over 10000 nM.
On the same count and under the same terms, under `CC(=O)N(C)c1ccccc1C` [Compound 3h, N-Methyl-N-(o-tolyl)acetamide] stands over 10000 nM.
As to `CC(=O)N1CCc2ccccc2C1` [Compound 3e, 1-(3,4-Dihydroisoquinolin-2(1H)-yl)ethan-1-one], the IC50 is 8000 ± 2200 nM.
The same measure, in the same setting: under `CC(=O)n1ncc2ccccc21` [Compound 3k, 1-(1H-Indazol-1-yl)ethan-1-one] stands over 10000 nM; under `CC(=O)N1C(=O)Cc2ccccc21` [Compound 3j, 1-Acetylindolin-2-one], 3200 ± 660 nM.
The same measure, in the same setting: then `CC(=O)N1CCOc2ccccc21` [Compound 3m, 1-(2,3-Dihydro-4H-benzo[b][1,4]oxazin-4-yl)ethan-1-one], with 2800 ± 1800 nM.
On to `CC(=O)n1ccc2ccccc21` [Compound 3b, 1-(1H-Indol-1-yl)ethan-1-one], for which the IC50 amounted to 5300 ± 1200 nM.
The same measure, in the same setting: under `O=C1CCCN1c1ccccc1` [Compound 3g, 1-Phenylpyrrolidin-2-one] stands over 10000 nM.
With `CC(=O)N1CCSc2ccccc21` [Compound 3n, 1-(2,3-Dihydro-4H-benzo[b][1,4]thiazin-4-yl)ethan-1-one], the IC50 worked out at 3600 ± 100 nM.
On the same count and under the same terms, then `CC(=O)N1CC(=O)c2ccccc21` [Compound 3i, 1-Acetylindolin-3-one], with 690 ± 120 nM; and `CC(=O)N1CCCc2ccccc21` [Compound 3c, 1-(3,4-Dihydroquinolin-1(2H)-yl)ethan-1-one], with 2500 ± 1000 nM.

Still in this data set, the particulars now being: Table 2; mean ± s.d. of n = 4–12; >10 = 20–50% inhibition @ 10 μM; read-out: Notum IC50.
As for `CC(=O)N1CCc2c(C#N)cccc21` [Compound 4l, 1-Acetylindoline-4-carbonitrile], the IC50 was 1500 ± 200 nM.
For the compound `CC(=O)N1CCc2c(C)cccc21` [Compound 4k, 1-(4-Methylindolin-1-yl)ethan-1-one], the IC50 is 83 ± 16 nM.
On the same count and under the same terms, under `CC(=O)N1CC2(CC2)c2cc(Cl)ccc21` [Compound 4z, 1-(5′-Chlorospiro[cyclopropane-1,3′-indolin]-1′-yl)ethan-1-one] stands 34 ± 10 nM; under `CC(=O)N1CCc2cc(C#N)ccc21` [Compound 4r, 1-Acetylindoline-5-carbonitrile], over 10000 nM.
For the compound `CC(=O)N1CCc2c(C3CC3)cccc21` [Compound 4p, 1-(4-Cyclopropylindolin-1-yl)ethan-1-one], the IC50 was 290 ± 140 nM.
Same read-out and setting: under `CC(=O)N1c2ccccc2CC1C` (centres unmarked) [Compound 4a, 1-(2-Methylindolin-1-yl)ethan-1-one] stands 2400 ± 1200 nM.
On the same count and under the same terms, then `COc1ccc2c(c1)CCN2C(C)=O` [Compound 4t, 1-(5-Methoxyindolin-1-yl)ethan-1-one], with 670 ± 80 nM.
For `CC(=O)N1CC(C)(C)c2ccccc21` [Compound 4c, 1-(3,3-Dimethylindolin-1-yl)ethan-1-one], the IC50 amounted to 1400 ± 400 nM.
As for `CC(=O)N1CCc2cc(C)ccc21` [Compound 4q, 1-(5-Methylindolin-1-yl)ethan-1-one], the IC50 was 220 ± 20 nM.
Still for that read-out and setting: then `CC(=O)N1CCc2cccc(Cl)c21` [Compound 4j, 1-(7-Chloroindolin-1-yl)ethan-1-one], with 6400 ± 900 nM; and `CC(=O)N1CCc2cc(C(F)(F)F)ccc21` [Compound 4u, 1-(5-(Trifluoromethyl)indolin-1-yl)ethan-1-one], with 520 ± 50 nM; and `CC(=O)N1CC2(CC2)c2ccccc21` [Compound 4d, 1-(Spiro[cyclopropane-1,3′-indolin]-1′-yl)ethan-1-one], with 61 ± 12 nM.
For `CC(=O)N1CCc2c(F)cccc21` [Compound 4m, 1-(4-Fluoroindolin-1-yl)ethan-1-one], the IC50 came out at 93 ± 2 nM.
For the compound `CC(=O)N1CC2(CCC2)c2ccccc21` [Compound 4e, 1-(Spiro[cyclobutane-1,3′-indolin]-1′-yl)ethan-1-one], the IC50 worked out at 1800 ± 1200 nM.
The same measure, in the same setting: under `CC(=O)N1CCc2ccc(Cl)cc21` [Compound 4i, 1-(6-Chloroindolin-1-yl)ethan-1-one] stands 1400 ± 200 nM.
On the same count and under the same terms, then `CC(=O)N1CC(C)c2ccccc21` (centres unmarked) [Compound 4b, 1-(3-Methylindolin-1-yl)ethan-1-one], with 260 ± 80 nM.
The same measure, in the same setting: under `CC(=O)N1CCc2ccc(Cl)c(Cl)c21` [Compound 4x, 1-(6,7-Dichloroindolin-1-yl)ethan-1-one] stands 2200 ± 600 nM.
Consider `CC(=O)N1c2ccccc2C2(C)CC12` (centres unmarked) [Compound 4f, 1-(6b-Methyl-1a,6b-dihydrocyclopropa[b]indol-2(1H)-yl)ethan-1-one], for which the IC50 was 4100 ± 800 nM.
Same read-out and setting: then `CC(=O)N1CCc2cc(F)ccc21` [Compound 4s, 1-(5-Fluoroindolin-1-yl)ethan-1-one], with 350 ± 40 nM.
On the same count and under the same terms, under `CC(=O)N1CCc2cc(Cl)ccc21` [Compound 4h, 1-(5-Chloroindolin-1-yl)ethan-1-one] stands 95 ± 14 nM.
On the same count and under the same terms, under `COc1cccc2c1CCN2C(C)=O` [Compound 4n, 1-(4-Methoxyindolin-1-yl)ethan-1-one] stands 670 ± 70 nM.

The same data set, now with this note: Table 4; mean ± s.d. of n = 4–8; >10 = 20–50% inhibition @ 10 μM; read-out: Notum IC50.
Turning to `O=C1CCC2Cc3cc(Cl)ccc3N12` (centres unmarked) [Compound 5j, 7-Chloro-1,2,9,9a-tetrahydro-3H-pyrrolo[1,2-a]indol-3-one], the 50% inhibitory concentration (IC50) was found to be 1200 ± 400 nM.
Same read-out and setting: then `CC(=O)N1CCOc2c(Cl)cccc21` [Compound 5e, 1-(8-Chloro-2,3-dihydro-4H-benzo[b][1,4]oxazin-4-yl)ethan-1-one], with 8500 ± 2100 nM.
As for `CC(=O)n1ccc2c(Cl)cccc21` [Compound 5c, 1-(4-Chloro-1H-indol-1-yl)ethan-1-one], the IC50 was found to be 730 ± 40 nM.
On to `CC12CCC(=O)N1c1ccccc1C2` (centres unmarked) [Compound 5l, 3a-Methyl-3,4-dihydro-2H-pyrrolo[1,2-a]indol-1-one], for which the IC50 was 2100 ± 310 nM.
Same read-out and setting: under `CCN1CCc2c(Cl)cccc21` [Compound 5o, 4-Chloro-1-ethylindoline hydrochloride] stands over 10000 nM.
Take `O=C1CCC2Cc3c(Cl)cccc3N12` (centres unmarked) [Compound 5k, 8-Chloro-1,2,9,9a-tetrahydro-3H-pyrrolo[1,2-a]indol-3-one]: the IC50 was 490 ± 30 nM.
On the same count and under the same terms, under `Clc1ccc2c(c1Cl)CCN2` [Compound 5n, 4,5-Dichloroindoline] stands 3600 ± 670 nM; under `O=C1COCC2Cc3ccccc3N12` (centres unmarked) [Compound 5i, 10,10a-Dihydro-1H-[1,4]oxazino[4,3-a]indol-4(3H)-one], 1600 to 10000 nM; under `CS(=O)(=O)N1CC2(CC2)c2c(Cl)cccc21` [Compound 5b, 4′-Chloro-1'-(methylsulfonyl)spiro[cyclopropane-1,3′-indoline]], 1000 ± 300 nM.
The same measure, in the same setting: then `O=C1OCC2Cc3ccccc3N12` (centres unmarked) [Compound 5h, 9,9a-Dihydro-1H,3H-oxazolo[3,4-a]indol-3-one], with 6100 ± 700 nM; and `CC(C)C(=O)N1CC2(CC2)c2c(Cl)cccc21` [Compound 5a, 1-(4′-Chlorospiro[cyclopropane-1,3′-indolin]-1′-yl)-2-methylpropan-1-one], with 4400 ± 300 nM.

The data set is the same for the next values; noted with them: vs 3a; more potent.
Take `CC(=O)N1CC(C)c2ccccc21` (centres unmarked) [Compound 4b, 1-(3-Methylindolin-1-yl)ethan-1-one]: the “fold increase in Notum inhibition over 3a” value was determined as 2 fold.

The same data set, now with this note: vs 3a; weaker.
Take `CC(=O)n1ccc2ccccc21` [Compound 3b, 1-(1H-Indol-1-yl)ethan-1-one]: the “fold decrease in Notum inhibition compared to 3a” value worked out at 10 fold.
Consider `CC(=O)N1CCCc2ccccc21` [Compound 3c, 1-(3,4-Dihydroquinolin-1(2H)-yl)ethan-1-one], for which the “fold decrease in Notum inhibition compared to 3a” value was determined as 6 fold.

Test system in the next data set: not listed separately
The experiment in a line: Stability in mouse liver microsomes. It counts as in vitro ADME.
Details: not given
The method, then:
Selected compounds were routinely screened for aqueous solubility in PBS (pH 7.4), transit performance in MDCK-MDR1 cell lines for permeability, and metabolic stability in MLM and HLM as a measure of clearance. The main metabolites and routes of metabolism of 4y were determined in MLM. Assay protocols and additional data are presented in the Supplementary Material (Tables S1–S7). ADME studies reported in this work were performed by WuXi AppTec (Shanghai, China).
Representative assay protocols have been described in detail. ^1,2
(Microsomes from liver hold many membrane-bound enzymes, among them those of drug oxidation.)
Consider `CC(=O)N1CC2(CC2)c2cc(Cl)ccc21` [Compound 4z, 1-(5′-Chlorospiro[cyclopropane-1,3′-indolin]-1′-yl)ethan-1-one], for which the “MLM Stability Cli” value worked out at 620 µL/min/mg protein.
Same read-out and setting: under `CC(=O)N1CC2(CC2)c2ccccc21` [Compound 4d, 1-(Spiro[cyclopropane-1,3′-indolin]-1′-yl)ethan-1-one] stands 360 µL/min/mg protein.
The same measure, in the same setting: under `CS(=O)(=O)N1CC2(CC2)c2c(Cl)cccc21` [Compound 5b, 4′-Chloro-1'-(methylsulfonyl)spiro[cyclopropane-1,3′-indoline]] stands 200 µL/min/mg protein.

Still in this data set, the particulars now being: mouse, read-out: MLM Stability t1/2.
As for `CC(=O)N1CC2(CC2)c2cc(Cl)ccc21` [Compound 4z, 1-(5′-Chlorospiro[cyclopropane-1,3′-indolin]-1′-yl)ethan-1-one], the half-life worked out at 2.2 min.
In the case of `O=C1N2c3ccccc3CC2CC1(F)F` (centres unmarked) [Compound 5m, 2,2-Difluoro-1,2,9,9a-tetrahydro-3H-pyrrolo[1,2-a]indol-3-one], the half-life at 1 h turned out to be 16 min.
`CC(=O)N1CC2(CC2)c2ccccc21` [Compound 4d, 1-(Spiro[cyclopropane-1,3′-indolin]-1′-yl)ethan-1-one]: the half-life came out at 3.8 min.
The same measure, in the same setting: under `CS(=O)(=O)N1CC2(CC2)c2c(Cl)cccc21` [Compound 5b, 4′-Chloro-1'-(methylsulfonyl)spiro[cyclopropane-1,3′-indoline]] stands 7 min.

(Values after PMC10626578, “Designed switch from covalent to non-covalent inhibitors of carboxylesterase Notum activity” (European Journal of Medicinal Chemistry, 2023).)
